Measurements reported in patent US9642941B2, “Implantable modular hydrogel for salivary gland restoration” (WILLIAM MARSH RICE UNIVERSITY, priority 2011, dated 2017).
Counter-ions that a name gives are not always drawn.

Assays:
β adrenergic receptors = assay: Exocytic granule production and α-amylase staining in salivary acinar-like cells on/in HA hydrogels; assay type: cell-based, human; conditions: 50 μM
Procedure: Cells seeded (1×10^5 cells/gel) on/in hydrogels were treated with varying concentrations (10 μM to 100 μM) of isoproterenol hydrochloride (Santa Cruz Biotechnology) and norepinephrine hydrochloride (Sigma), each of which induce granule production and exocytosis, for various time points from 15 min-2 h. After treatment, culture medium was removed and cells were fixed immediately with 100% methanol and stained with α-amylase for microscopic analysis. Functionality of salivary acinar-like cells was assessed by response to neurotransmitter agonists. Norepinephrine binding to the β adrenergic receptors activates the protein secretion pathway. In this study, the sympathomimetic β adrenergic agonists, norepinephrine and isoproterenol, were used to stimulate protein production and exocytosis. Salivary acinar-like cells cultured on/in hydrogels were treated with 50 μM isoproterenol for 15 min to 1 hr. After treatment, cells were immediately fixed and stained, then analyzed for granule formation and α-amylase expression. FIGS. 21-25 quantify the extent of amylase response, using the intensity of fluorescence staining as a surrogate. […] Exocytosing granules stained in red for α-amylase are seen budding out from the cell membrane in FIG. 21C, E, F. Granule production has been quantified in FIG. 26. Upon stimulation, acini-like structures in 3D also secreted α-amylase into the hydrogel (FIG. 21E, F). α-Amylase staining is quantified in FIGS. 23-25.

HP = conditions: read-out: Dissociation constant (Kd) of complex with HP; cited from earlier work
M3 muscarinic receptors = target: T1, M3 muscarinic receptors (Homo sapiens, UniProt P20309); assay: Intracellular calcium release (Fluo-4) in acini-like structures on 2.5D / in 3D HA hydrogels treated with acetylcholine; assay type: cell-based
T1 construct: Parotid gland tissue was collected from patients aged 40-55 years undergoing surgery; endogenous in cells; host or cells: primary acinar-like cells (passage 3-4) from patients' parotid gland tissue, on 2.5D or in 3D HA hydrogels
Procedure: Intracellular calcium [Cai] release studies utilized the calcium indicator dye, Fluo-4 (Invitrogen). Cells were seeded at 1×10^5 cells/gel in cell culture inserts as before. Cells on 2.5D and in 3D hydrogels were cultured for 12 days. Fluo-4 was suspended in 0.8% (w/v) pluronic acid and mixed with 8 mL of 1× Hanks' balanced salt solution (HBSS) without calcium. Cell-seeded hydrogels were incubated with Fluo-4 suspended in pluronic acid for 30 min at 37° C. After 30 min, cells were washed twice with 1×HBSS, and incubated for 30 min in HBSS. After loading and recovery, hydrogels were imaged using a Zeiss LSM 5-live high-speed confocal microscope. Baseline fluorescence was established for 30 sec at 488 nm. Cell-seeded hydrogels then were treated with various concentrations (ranging from 50 μM-500 μM) of the muscarinic agonist acetylcholine chloride. 2.5D hydrogels were flipped so that cells were on the bottom of the chamber slides. 50 μL of the agonist was added to the bottom of the chamber containing 50 μL medium. 3D hydrogels were suspended in 100 μL of medium and treated with 100 μL of agonist. Resulting increases in Cai levels were captured in a series of image scans and by graph plot.
To stimulate fluid secretion, salivary acinar-like cells were treated with acetylcholine. Addition of 50 μM acetylcholine induced a robust calcium response in self-assembling acini-like structures cultured on 2.5D hydrogels (FIG. 27A). Acini-like structures on hydrogels were imaged without saline buffer to minimize movement of hydrogels in the liquid. The calcium response peak seen at ˜5 min can be attributed to the diffusion time needed by the neurotransmitter to pass through the hydrogel to the cells. Treatment with 100 μM acetylcholine produced calcium oscillations lasting over 20 min in multiple cells within a self-assembled acinus-like structure (FIG. 27B). Oscillations from different structures varied in intensity. […] Experiments were performed three times with each agonist concentration, on separate hydrogel cultures. Data were recorded from 3-4 acini-like structures each time. […] Positive controls used a hypotonic solution to induce a calcium response.
Treatment with 50 μM acetylcholine induced calcium oscillations that lasted over 20 minutes in spheroid structures encapsulated in 3D hydrogels (FIG. 27D). […] Compared to the response seen among 2.5D cultures, the increase in [Ca^2+] was quicker in 3D, where cells responded to acetylcholine treatment within 30 seconds while cells in 2.5D took nearly 300 seconds. […] Thus, cell response to acetylcholine agonist in 3D was faster, more intense, and more prolonged than cell response in 2.5D.

[1] = tested on: spheroids in 3D HA hydrogels; assay: FGF7 treatment of spheroids in 3D HA hydrogels; assay type: cell-based, human; conditions: 25 ng/mL FGF7 daily for 10 d and 12 d
Procedure: FIG. 14 is a picture depicting organized spheroids. […] (a) Untreated cells at 20 d culture. (b,c) Spheroids treated with 25 ng/mL FGF7 daily for (b) 10 d and (c) 12 d.
Functional neotissue glands must advance beyond spherical lumen to initiate directional delivery of secretory products and recreate the differentiated roles of fluid producing acinar and fluid resorbing ductal cells. Recent work identified the specific roles of FGF7 and FGF10 in inducing ductal elongation and branching, respectively. These roles are tied to the cells' perceived gradients of each GF from a point source, defined by diffusion through ECM and controlled by their binding to HS (in Pln and other proteoglycans). […] When delivered through media, FGF7 may induce overall larger spheroids (as expected, when FGF7 is not delivered from a directional point source). […] HGPs are an optimal mechanism for directional controlled delivery of FGF7 and FGF10.

T1 sequence (P20309 whole entry): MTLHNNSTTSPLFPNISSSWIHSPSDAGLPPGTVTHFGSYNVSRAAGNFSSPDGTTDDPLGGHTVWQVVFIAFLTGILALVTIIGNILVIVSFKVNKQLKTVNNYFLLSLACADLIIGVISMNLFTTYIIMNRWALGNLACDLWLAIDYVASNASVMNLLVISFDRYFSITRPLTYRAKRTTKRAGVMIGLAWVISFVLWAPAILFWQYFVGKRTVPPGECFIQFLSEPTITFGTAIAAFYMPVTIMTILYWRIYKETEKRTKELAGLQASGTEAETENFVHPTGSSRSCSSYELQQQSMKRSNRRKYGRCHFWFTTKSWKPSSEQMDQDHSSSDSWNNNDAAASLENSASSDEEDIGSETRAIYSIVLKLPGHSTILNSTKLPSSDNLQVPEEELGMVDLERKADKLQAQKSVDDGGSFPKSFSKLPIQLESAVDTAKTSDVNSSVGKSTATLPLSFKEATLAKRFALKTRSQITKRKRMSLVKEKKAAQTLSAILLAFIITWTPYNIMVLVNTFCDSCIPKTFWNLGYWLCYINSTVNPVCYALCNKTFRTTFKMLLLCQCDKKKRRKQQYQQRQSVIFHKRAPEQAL

CC(C)NCC(O)c1ccc(O)c(O)c1 (stereo not drawn) [isoproterenol, isoproterenol hydrochloride]
α-Amylase localisation (β adrenergic receptors; 15 min): α-amylase near the membrane periphery | Granule formation and α-amylase staining (β adrenergic receptors; 1 h, 2.5D and 3D): presence of granules and robust α-amylase staining

NC[C@H](O)c1ccc(O)c(O)c1 [norepinephrine, norepinephrine hydrochloride]
Secretory granules (β adrenergic receptors; 2.5D and 3D): displayed multiple secretory granules

VEGF
Kd (HP): 165 nM

CC(=O)OCC[N+](C)(C)C.[Cl-] [ACh, acetylcholine chloride]
Average Peak Height (Intensity) (M3 muscarinic receptors; 2.5D hydrogel, 50 μM ACh): 58 ± 11 | Average Peak Length (M3 muscarinic receptors; 2.5D hydrogel, 50 μM ACh): 42 ± 21 s | Percent Responders (M3 muscarinic receptors; 2.5D hydrogel, 50 μM ACh): 33% | Average Peak Height (Intensity) (M3 muscarinic receptors; 2.5D hydrogel, 100 μM ACh): 10 ± 3 | Average Peak Length (M3 muscarinic receptors; 2.5D hydrogel, 100 μM ACh): 46 ± 9 s | Percent Responders (M3 muscarinic receptors; 2.5D hydrogel, 100 μM ACh): 22% | Time of calcium response peak (M3 muscarinic receptors; 2.5D hydrogels, 50 μM): ~5 min | Duration of calcium oscillations (M3 muscarinic receptors; 2.5D hydrogels, 100 μM): over 20 min | Calcium oscillations (M3 muscarinic receptors; 3D cultures, 100 μM): induced similar oscillations | Average Peak Height (Intensity) (M3 muscarinic receptors; 3D hydrogel, 50 μM ACh): 39 ± 6 | Average Peak Length (M3 muscarinic receptors; 3D hydrogel, 50 μM ACh): 164 ± 8 s | Percent Responders (M3 muscarinic receptors; 3D hydrogel, 50 μM ACh): 43% | Average Peak Height (Intensity) (M3 muscarinic receptors; 3D hydrogel, 100 μM ACh): 14 ± 8 | Average Peak Length (M3 muscarinic receptors; 3D hydrogel, 100 μM ACh): 180 ± 34 s | Percent Responders (M3 muscarinic receptors; 3D hydrogel, 100 μM ACh): 16% | Duration of calcium oscillations (M3 muscarinic receptors; 3D hydrogels, 50 μM): over 20 minutes | Time until cells responded with increase in [Ca2+] (M3 muscarinic receptors; cells in 2.5D): ~300 s | Time until cells responded with increase in [Ca2+] (M3 muscarinic receptors; cells in 3D): ≤ 30 s

B1: FGF7: heparin-binding growth factor (protein, UniProt P21781 32-194, looked up)
Fibroblast growth factor 7: CNDMTPEQMATNVNCSSPERHTRSYDYMEGGDIRVRRLFCRTQWYLRIDKRGKVKGTQEMKNNYNIMEIRTVAVGIVAIKGVESEFYLAMNKEGKLYAKKECNEDCNFKELILENHYNTYASAKWTHNGGEMFVALNQKGIPVRGKKTKKEQKTAHFLPMAIT
Spheroid size [1]: increases spheroid size | Kd (HP): 30 to 49 nM
